Data reported in patent publication US8293774B2, “Optically active (R)-aryloxypropionic acid amides and herbicidal composition comprising same” (Kyung Nong Corporation, priority 2007, dated 2012).

Experiments:
Assay in all cases: Weed control test, foliage treatment (Test Example 1, Table 7)
[1] = tested on: ORYSA (Oryza sativa cv. Dongjin, rice); details: in vivo
Protocol: (§1) Seeds of rice, wheat, soy bean, barley, corn, common sorgum, barnyard grass, large crabgrass, creek grass, green foxtail and fall panicum were placed in sandy loam in 600 cm^2 pots and covered with soil. After keeping the pots in a greenhouse at 20 to 30° C. allowing growth of the plants to the 3-leaf stage of the barnyard grass, 2,000 l/ha of an emulsion obtained by diluting with water a mixture of 1 part by weight of a test compound, 5 parts by weight of acetone and 1 part by weight of an emulsifying agent (Tween 80, Junsei) was applied to the surface of the foliage of the plants. The plant damage at 10 days and 20 days after the foliage treatment was visually evaluated from the level of 1 to 100% by comparison with the untreated control: […]

[2] = tested on: HORVU (Hordeum vulgare L., barley); details: in vivo
Protocol: as §1

[3] = tested on: GLXMA (Glycine max(L.) MERR, soy bean); details: in vivo
Protocol: as §1

[4] = tested on: TRZAW (Tritium aestivum L., wheat); details: in vivo
Protocol: as §1

[5] = tested on: SETVIR (Setaria viridis (L.) Beauv, green foxtail); assay type: in vivo; details: Setaria viridis, foliar, read-out: Plant damage (herbicidal activity), visually evaluated, SETVIR; for pest or weed control at 25 g/ha: 0.025 kg/ha; for pest or weed control at 100 g/ha: 0.1 kg/ha; for pest or weed control at 200 g/ha: 0.2 kg/ha
Protocol: as §1

[6] = tested on: ARTHIS (Arthraxon hispidus (Thunb.) Makino, creek grass); assay type: in vivo; details: Arthraxon hispidus, foliar, read-out: Plant damage (herbicidal activity), visually evaluated, ARTHIS; for pest or weed control at 25 g/ha: 0.025 kg/ha; for pest or weed control at 100 g/ha: 0.1 kg/ha; for pest or weed control at 200 g/ha: 0.2 kg/ha
Protocol: as §1

[7] = tested on: ZEAMX (Zea mays L., corn); assay type: in vivo; details: Zea mays, foliar, read-out: Plant damage (herbicidal activity), visually evaluated, ZEAMX; for plant injury at 25 g/ha: 0.025 kg/ha; for plant injury at 100 g/ha: 0.1 kg/ha; for plant injury at 200 g/ha: 0.2 kg/ha
Protocol: as §1

[8] = tested on: DIGSA (Digitaria Sanguinalis (L.) SCOP, large crabgrass); assay type: in vivo; details: Digitaria sanguinalis, foliar, read-out: Plant damage (herbicidal activity), visually evaluated, DIGSA; for pest or weed control at 25 g/ha: 0.025 kg/ha; for pest or weed control at 100 g/ha: 0.1 kg/ha; for pest or weed control at 200 g/ha: 0.2 kg/ha
Protocol: as §1

[9] = tested on: ECHOG (Echinoch crus-galli Beauv. var. caudata Kitagawa, barnyard grass); assay type: in vivo; details: Echinochloa crus-galli, foliar, 3-leaf stage, read-out: Plant damage (herbicidal activity), visually evaluated, ECHOG; for pest or weed control at 25 g/ha: 0.025 kg/ha; for pest or weed control at 100 g/ha: 0.1 kg/ha; for pest or weed control at 200 g/ha: 0.2 kg/ha
Protocol: as §1

[10] = tested on: PANDI (Panium dichotomiflorum Michx, fall panicum); assay type: in vivo; details: Panicum dichotomiflorum, foliar, read-out: Plant damage (herbicidal activity), visually evaluated, PANDI; for pest or weed control at 25 g/ha: 0.025 kg/ha; for pest or weed control at 100 g/ha: 0.1 kg/ha; for pest or weed control at 200 g/ha: 0.2 kg/ha
Protocol: as §1

[11] = tested on: SORBI (Andropogon sorghum, common sorgum); assay type: in vivo; details: Sorghum bicolor, foliar, read-out: Plant damage (herbicidal activity), visually evaluated, SORBI; for pest or weed control at 25 g/ha: 0.025 kg/ha; for pest or weed control at 100 g/ha: 0.1 kg/ha; for pest or weed control at 200 g/ha: 0.2 kg/ha
Protocol: as §1

SMILES | Plant damage (herbicidal activity), visually evaluated, ORYSA [1] [%] | Plant damage (herbicidal activity), visually evaluated, HORVU [2] [%] | Plant damage (herbicidal activity), visually evaluated, GLXMA [3] [%] | Plant damage (herbicidal activity), visually evaluated, TRZAW [4] [%] | pest or weed control at 25 g/ha [5] [%] | pest or weed control at 100 g/ha [5] [%] | pest or weed control at 200 g/ha [5] [%] | pest or weed control at 25 g/ha [6] [%] | pest or weed control at 100 g/ha [6] [%] | pest or weed control at 200 g/ha [6] [%] | plant injury at 25 g/ha [7] [%] | plant injury at 100 g/ha [7] [%] | plant injury at 200 g/ha [7] [%] | pest or weed control at 25 g/ha [8] [%] | pest or weed control at 100 g/ha [8] [%] | pest or weed control at 200 g/ha [8] [%] | pest or weed control at 25 g/ha [9] [%] | pest or weed control at 100 g/ha [9] [%] | pest or weed control at 200 g/ha [9] [%] | pest or weed control at 25 g/ha [10] [%] | also measured
Cc1ccc2nc(N(C)C(=O)[C@@H](C)Oc3ccc(Oc4ccc(C#N)cc4F)cc3)sc2c1 [Example 26, (R)-2-[4-(4-cyano-2-fluorophenoxy)phenoxy]propionic acid-N-(6-methyl-2-benzothiazolyl)-N-methyl amide] | 0 | 0 | 0 | 0 | 0 | 0 | 0 | 0 | 0 | 0 | 10 | 10 | 30 | 0 | 0 | 0 | 0 | 0 | 0 | 0 | pest or weed control at 100 g/ha [10]: 0%; pest or weed control at 200 g/ha [10]: 0%; pest or weed control at 25 g/ha [11]: 10%; pest or weed control at 100 g/ha [11]: 20%; pest or weed control at 200 g/ha [11]: 35%
Cc1cc(NC(=O)[C@@H](C)Oc2ccc(Oc3ccc(C#N)cc3F)cc2)n(C)n1 [Example 29, (R)-2-[4-(4-cyano-2-fluorophenoxy)phenoxy]propionic acid-N-(1,3-dimethyl-5-pyrazolyl)amide] | 0 | 0 | 0 | 0 | 0 | 0 | 20 | 0 | 0 | 10 | 0 | 5 | 30 | 0 | 20 | 90 | 20 | 70 | 90 | 0 | pest or weed control at 100 g/ha [10]: 0%; pest or weed control at 200 g/ha [10]: 10%; pest or weed control at 25 g/ha [11]: 0%; pest or weed control at 100 g/ha [11]: 20%; pest or weed control at 200 g/ha [11]: 50%
C[C@@H](Oc1ccc(Oc2ccc(C#N)cc2F)cc1)C(=O)Nc1nccs1 [Example 31, (R)-2-[4-(4-cyano-2-fluorophenoxy)phenoxy]propionic acid-N-(2-thiazolyl)amide] | 0 | 0 | 0 | 0 | 0 | 70 | 70 | 0 | 70 | 70 | 20 | 90 | 90 | 0 | 20 | 70 | 0 | 50 | 90 | 0 | pest or weed control at 100 g/ha [10]: 20%; pest or weed control at 200 g/ha [10]: 20%; pest or weed control at 25 g/ha [11]: 0%; pest or weed control at 100 g/ha [11]: 20%; pest or weed control at 200 g/ha [11]: 50%
